Compound | melting point
Cn1ccc(C(=O)c2sc(NC(=O)c3ccncc3)nc2-c2ccco2)cc1=O [Compound 367, N-[4-(2-Furyl)-5-(1-methyl-2-oxo-1,2-dihydropyridin-4-ylcarbonyl)thiazol-2-yl]pyridine-4-carboxamide] | 243 to 255 °C (dec.)
CCn1ccc(C(=O)c2sc(NC(=O)c3ccncc3)nc2-c2ccco2)cc1=O [Compound 369, N-[5-(1-Ethyl-2-oxo-1,2-dihydropyridin-4-ylcarbonyl)-4-(2-furyl)thiazol-2-yl]pyridine-4-carboxamide] | 277 to 281 °C
O=C(Nc1nc(-c2ccco2)c(C(=O)c2ccn(Cc3ccccc3)c(=O)c2)s1)c1ccncc1 [Compound 371, N-[5-(1-Benzyl-2-oxo-1,2-dihydropyridin-4-ylcarbonyl)-4-(2-furyl)thiazol-2-yl]pyridine-4-carboxamide] | 288 to 291 °C
O=C(Nc1nc(-c2ccco2)c(C(=O)c2cnccn2)s1)c1ccncc1 [Compound 374, N-[4-(2-Furyl)-5-(pyrazin-2-ylcarbonyl)thiazol-2-yl]pyridine-4-carboxamide] | > 300 °C
O=C(Nc1nc(-c2ccco2)c(C(=O)c2ccncn2)s1)c1ccncc1 [Compound 375, N-[4-(2-Furyl)-5-(pyrimidin-4-ylcarbonyl)thiazol-2-yl]pyridine-4-carboxamide] | > 300 °C
O=C(Nc1nc(-c2ccco2)c(C(=O)c2cccnn2)s1)c1ccncc1 [Compound 376, N-[4-(2-Furyl)-5-(pyridazin-3-ylcarbonyl)thiazol-2-yl]pyridine-4-carboxamide] | 280 to 281 °C
CC(=O)c1sc(NC(=O)c2ccncc2)nc1-c1ccco1 [Compound 377, N-[5-Acetyl-4-(2-furyl)thiazol-2-yl]pyridine-4-carboxamide] | 252 to 259 °C (dec.)
O=C(Nc1nc(-c2ccco2)c(C(=O)C(F)(F)F)s1)c1ccncc1 [Compound 380, N-[4-(2-Furyl)-5-(trifluoroacetyl)thiazol-2-yl]pyridine-4-carboxamide] | 268 to 270 °C
CCC(=O)c1sc(NC(=O)c2ccncc2)nc1-c1ccco1 [Compound 381, N-[4-(2-Furyl)-5-propionylthiazol-2-yl]pyridine-4-carboxamide] | 225 to 240 °C (dec.)
CCCC(=O)c1sc(NC(=O)c2ccncc2)nc1-c1ccco1 [Compound 382, N-[5-Butyryl-4-(2-furyl)thiazol-2-yl]pyridine-4-carboxamide] | 191 to 194 °C
CCCC(=O)c1sc(NC(=O)C2CC2)nc1-c1ccco1 [Compound 385, N-[5-Butyryl-4-(2-furyl)thiazol-2-yl]cyclopropanecarboxamide] | 170 to 172 °C
CC(C)(C)C(=O)c1sc(NC(=O)c2ccncc2)nc1-c1ccco1 [Compound 400, N-[4-(2-Furyl)-5-pivaloylthiazol-2-yl]pyridine-4-carboxamide] | 240 to 245 °C
CC(C)(C)C(=O)c1sc(NC(=O)C2CC2)nc1-c1ccco1 [Compound 401, N-[4-(2-Furyl)-5-pivaloylthiazol-2-yl]cyclopropanecarboxamide] | 133 to 134 °C
COCC(=O)c1sc(NC(=O)c2ccc(F)cc2)nc1-c1ccco1 [Compound 405, 4-Fluoro-N-[4-(2-furyl)-5-(methoxyacetyl)thiazol-2-yl]benzamide] | 166 to 167 °C
O=C(Nc1nc(-c2ccco2)c(C(=O)C2CCC2)s1)c1ccco1 [Compound 425, N-[5-(Cyclobutylcarbonyl)-4-(2-furyl)thiazol-2-yl]furan-2-carboxamide] | 188 to 192 °C
O=C(Nc1nc(-c2ccco2)c(C(=O)C2CCC2)s1)C1CC1 [Compound 427, N-[5-(Cyclobutylcarbonyl)-4-(2-furyl)thiazol-2-yl]cyclopropanecarboxamide] | 200 to 205 °C
O=C(c1sc(NC(=O)N2CCOCC2)nc1-c1ccco1)C1CCCC1 [Compound 435, N-[5-(Cyclopentylcarbonyl)-4-(2-furyl)thiazol-2-yl]-morpholine-4-carboxamide] | 108 to 110 °C
Cc1cc(C(=O)Nc2nc(-c3ccco3)c(C(=O)C3CCC(=O)CC3)s2)ccn1 [Compound 449, N-[4-(2-Furyl)-5-(4-oxocyclohexylcarbonyl)thiazol-2-yl]-2-methylpyridine-4-carboxamide] | 108 to 115 °C
N#Cc1ccc(C(=O)Nc2nc(-c3ccco3)c(C(=O)C3CCC(=O)CC3)s2)cc1 [Compound 452, 4-Cyano-N-[4-(2-furyl)-5-(4-oxocyclohexylcarbonyl)thiazol-2-yl]benzamide] | 211 to 212 °C
Cc1ccccc1C(=O)Nc1nc(-c2ccco2)c(C(=O)C2CCOCC2)s1 [Compound 458, N-[4-(2-Furyl)-5-(tetrahydropyran-4-ylcarbonyl)thiazol-2-yl]-2-methylbenzamide] | 204 to 206 °C
Cc1cccc(C(=O)Nc2nc(-c3ccco3)c(C(=O)C3CCOCC3)s2)c1 [Compound 459, N-[4-(2-Furyl)-5-(tetrahydropyran-4-ylcarbonyl)thiazol-2-yl]-3-methylbenzamide] | 197 to 201 °C
COc1ccc(C(=O)Nc2nc(-c3ccco3)c(C(=O)C3CCOCC3)s2)cc1 [Compound 463, N-[4-(2-Furyl)-5-(tetrahydropyran-4-ylcarbonyl)thiazol-2-yl]-4-methoxybenzamide] | 184 to 188 °C
CN(C)c1cccc(C(=O)Nc2nc(-c3ccco3)c(C(=O)C3CCOCC3)s2)c1 [Compound 464, 3-(Dimethylamino)-N-[4-(2-furyl)-5-(tetrahydropyran-4-ylcarbonyl)thiazol-2-yl]benzamide] | 239 to 243 °C

The next lines start with the values.

melting point | Compound
195 to 199 °C | CC(C)C(=O)c1sc(N)nc1-c1ccco1 [Compound 392, 2-Amino-4-(2-furyl)thiazol-5-yl isopropyl ketone]
179 to 182 °C | CC(C)C(=O)c1sc(NC(=O)c2ccncc2)nc1-c1ccco1 [Compound 393, N-[4-(2-Furyl)-5-isobutyrylthiazol-2-yl]pyridine-4-carboxamide]
178 to 182 °C | CC(C)C(=O)c1sc(NC(=O)C2CC2)nc1-c1ccco1 [Compound 394, N-[4-(2-Furyl)-5-isobutyrylthiazol-2-yl]cyclopropane carboxamide]
174 to 183 °C | COCC(=O)c1sc(NC(=O)c2ccc(Cl)nc2)nc1-c1ccco1 [Compound 404, 2-Chloro-N-[4-(2-furyl)-5-(methoxyacetyl)thiazol-2-yl]pyridine-5-carboxamide]
198 to 200 °C | COCC#CC(=O)c1sc(NC(=O)c2ccncc2)nc1-c1ccco1 [Compound 413, N-[4-(2-Furyl)-5-(3-methoxypropa-1-ynylcarbonyl)thiazol-2-yl]pyridine-4-carboxamide]
225 to 230 °C (dec.) | O=C(Nc1nc(-c2ccco2)c(C(=O)C2CC2)s1)c1ccncc1 [Compound 417, N-[5-(Cyclopropylcarbonyl)-4-(2-furyl)thiazol-2-yl]pyridine-4-carboxamide]
150 to 154 °C | COc1ccccc1C(=O)Nc1nc(-c2ccco2)c(C(=O)C2CC2)s1 [Compound 420, N-[5-(Cyclopropylcarbonyl)-4-(2-furyl)thiazol-2-yl]-2-methoxybenzamide]
125 to 160 °C (dec.) | Nc1nc(-c2ccco2)c(C(=O)C2CCC2)s1 [Compound 423, 2-Amino-4-(2-furyl)thiazol-5-yl cyclobutyl ketone]
227 to 235 °C (dec.) | O=C(Nc1nc(-c2ccco2)c(C(=O)C2CCC2)s1)c1ccncc1 [Compound 424, N-[5-(Cyclobutylcarbonyl)-4-(2-furyl)thiazol-2-yl]pyridine-4-carboxamide]
220 to 225 °C | N#Cc1ccc(C(=O)Nc2nc(-c3ccco3)c(C(=O)C3CCC3)s2)cc1 [Compound 426, 4-Cyano-N-[5-(cyclobutylcarbonyl)-4-(2-furyl)thiazol-2-yl]benzamide]
182 to 187 °C | O=C(Nc1nc(-c2ccco2)c(C(=O)C2CCCC2)s1)C1CC1 [Compound 434, N-[5-(Cyclopentylcarbonyl)-4-(2-furyl)thiazol-2-yl]cyclopropanecarboxamide]
180 to 187 °C | COC1CCC(C(=O)c2sc(NC(=O)c3ccncc3)nc2-c2ccco2)CC1 (stereo not drawn) [Compound 442, N-[4-(2-Furyl)-5-(4-methoxycyclohexylcarbonyl)thiazol-2-yl]pyridine-4-carboxamide]
105 to 109 °C | COC1CCC(C(=O)c2sc(NC(=O)c3ccc(C#N)cc3)nc2-c2ccco2)CC1 (stereo not drawn) [Compound 443, 4-Cyano-N-[4-(2-furyl)-5-(4-methoxycyclohexylcarbonyl)thiazol-2-yl]benzamide]
206 to 212 °C | O=C1CCC(C(=O)c2sc(NC(=O)c3ccncc3)nc2-c2ccco2)CC1 [Compound 448, N-[4-(2-Furyl)-5-(4-oxocyclohexylcarbonyl)thiazol-2-yl]pyridine-4-carboxamide]
232 to 235 °C | O=C1CCC(C(=O)c2sc(NC(=O)c3ccco3)nc2-c2ccco2)CC1 [Compound 450, N-[4-(2-Furyl)-5-(4-oxocyclohexylcarbonyl)thiazol-2-yl]furan-2-carboxamide]
176 to 183 °C | COc1cccc(C(=O)Nc2nc(-c3ccco3)c(C(=O)C3CCC(=O)CC3)s2)c1 [Compound 451, N-[4-(2-Furyl)-5-(4-oxocyclohexylcarbonyl)thiazol-2-yl]-3-methoxybenzamide]
221 to 222 °C | O=C(Nc1nc(-c2ccco2)c(C(=O)C2CCOCC2)s1)c1ccccc1 [Compound 457, N-[4-(2-Furyl)-5-(tetrahydropyran-4-ylcarbonyl)thiazol-2-yl]benzamide]
190 to 192 °C | Cc1ccc(C(=O)Nc2nc(-c3ccco3)c(C(=O)C3CCOCC3)s2)cc1 [Compound 460, N-[4-(2-Furyl)-5-(tetrahydropyran-4-ylcarbonyl)thiazol-2-yl]-4-methylbenzamide]
181 to 184 °C | COc1ccccc1C(=O)Nc1nc(-c2ccco2)c(C(=O)C2CCOCC2)s1 [Compound 461, N-[4-(2-Furyl)-5-(tetrahydropyran-4-ylcarbonyl)thiazol-2-yl]-2-methoxybenzamide]
